Experiments:
[1] = test system: p-Histone H3 in OVCAR-3 HGSOC tumor xenografts; assay: Tumor pharmacodynamic p-Histone H3 MSD assay; format: in vivo, mouse; conditions: 3, 10, 30, 100 mg/kg; tumor collected 24 hours post-treatment
Protocol: Female athymic nude mice were injected with 5×10^6 OVCAR-3 cells in 0.1 mL subcutaneously in the right flank. After tumors were established (average tumor volume of 450 to 750 mm^3), animals were randomized into 5 treatment groups (vehicle alone, KIF18A inhibitor at 3, 10, 30, or 100 mg/kg) with 3 animals per group. Tumor and blood plasma were collected 24 hours post-treatment for pharmacokinetic analysis and tumor for pharmacodynamic analysis. Preparations of tumor protein lysates from snap frozen, pulverized, and lysed and processed using EpiQuik Total Histone Extraction Kit (OP-0006 Epigentek, Farmingdale, N.Y.) protocol. […] Lysates normalized for total protein per well were loaded onto Meso Scale Discovery (MSD) electrochemiluminescent immunoassay plates at 30 μg/well in lysis buffer a processed of pHH3 MSD analysis according to the manufacturer's protocol for the single-plex MSD assays using phospho-Histone H3 (serine-10) antibody (pHH3) and analyzed on a Sector Imager S16000 luminescence detection reader (MSD, Gaithersburg, Md.). Lysates were normalized for total protein and pHH3 fold induction represents the group average raw MSD value divided by the average raw MSD value of the vehicle treated group. […] The fold induction in pHH3 is noted for each KIF18A inhibitor treatment group relative to mean baseline pHH3 signal for vehicle group. […]

[2] = test system: panel of cancer cell lines including breast cancer cell lines, ovary cancer cell lines, and a prostate cancer cell line; assay: 4-day image-based nuclear count assay (NCA), cancer cell line panel; parameters: species or system human
Protocol: Eg5 motor inhibitor (Ispinesib) was used as a cytotoxic control. […] Cancer cell lines were seeded in a Corning 96-well Flat Clear Bottom Black Polystyrene plate (Corning, N.Y.) in 100 μL of appropriate complete media at the appropriate density and grown for 24 hours. In one set of experiments, in preparation for cell treatment, a 2× concentration of one of: […] The compound was added to the cells with a final volume of 200 μL in complete media containing 0.5% DMSO. After 4 days (96 hours) or 6 days (144 hours) of treatment, the cells were fixed by removing 100 μL of complete media from each well and replacing it with 100 μL of 2×formaldehyde (final 4%) and incubating the plates for 15 minutes at room temperature. After fixation, the cells were permeabilized and stained in 200 μL Wash Buffer (1% BSA, 0.2% Triton X-100, 1×PBS) containing 2 μg/mL Hoechst 33342 DNA dye. The plates were sealed and incubated for 1 hour at room temperature in the dark. Cells were stored at 4° C. in the dark until data acquisition. Imaging data was acquired on Cellomics ArrayScan VTI HCS Reader (SN03090745F, ThermoFisher Scientific) using the Target Activation V4 Assay protocol (Ve 6.6.0 (Build 8153) with a 10×objective, collected 16-fields per well). […] A Mean Count EC50 value (±SD) across all sensitive cell lines was determined for each test agent.

OVCAR-3 HGSOC cells = assay: Time course Western blot of cell cycle and apoptosis proteins; format: cell-based, human; conditions: 0.5 μM; release from double thymidine block, 4-24 hours
Protocol: OVCAR-3 HGSOC cells were seeded at a density of 1.4 million cells into 100 mm tissue culture plates in 10 mL of complete growth media. The next day, complete growth media containing 2 mM thymidine was added to the cells and incubated for 16 hours. Cells were washed thrice in 1×PBS before adding complete growth media for 8 hours, followed by and second 2 mM thymidine block for 16 hours. The double thymidine block arrested cells in G1/S phase of the cell cycle. Cells were release from G1/S block by first washing thrice in 1×PBS before adding complete growth media with DMSO or KIF18A inhibitor (Compound C11 at 0.5 μM). Cell lysates were prepared at multiple time points (4, 8, 10, 12, 14, and 24 hours). As controls, asynchronous growing OVCAR-3 cells were treated DMSO or KIF18A inhibitor (Compound C11 at 0.5 μM) and lysates were prepared at 24 hours. Primary antibodies included mouse anti-cleaved-PARP (cl-PARP) (51-900017, BD Pharmingen, 1:500), mouse anti-cyclin B1 (554179, BD Pharmingen, 1:500), rabbit anti-Mcl-1 (5453, Cell Signaling, 1:500), mouse anti-Cyclin E1 (MS-870-P, HE12, NeoMarkers, 1:2000), mouse anti-BubR1 (612503, BD Pharmingen, 1:5000), and rabbit anti-KIF18A (HPA039484, Simga, 1:2000), and mouse anti-β-actin (A5441, Simga, 1:5000).

[3] = target: T1, Recombinant human KIF18A (1-467 His-tagged) protein (Homo sapiens, UniProt Q8NI77); assay: KIF18A Enzyme Assay (microtubule-stimulated ATPase activity, ADP-Glo); format: biochemical; conditions: 30 nM KIF18A, 75 μM ATP
T1 construct: Recombinant human KIF18A (1-467 His-tagged) protein; His; made in house
Protocol: KIF18A Enzyme Assay: Microtubule-stimulated ATPase activity assay was used to measure KIF18A enzyme activity after treatment with compound. Compounds were 2-fold serially diluted in DMSO (Sigma Inc) over 22-point concentration range. […] The assay measures ADP formed from the ATPase reaction.
Concentration-response curve-fitting and IC50 determination was performed using Genedata Screener Software (Standard 15.0.1, Genedata Inc) with a four-parameter logistic regression fit model.

[4] = test system: KIF18A protein localization in HeLa cells; assay: KIF18A and Centrin-3 immunostaining; format: cell-based, human; conditions: 0.05 μM, 6 hours
Protocol: To analyze the effect of KIF18A protein localization in cancer cells treated with a KIF18A inhibitor, KIF18A and Centrin-3 immunostaining in HeLa cells (FIG. 11). Cells were seeded into Lab-Tek 2-well chamber slides at a density of 100,000 cells per chamber in complete growth media and grown for 2 days to approximately 80% confluency. Cells were treated for 6 hours with DMSO, KIF18A inhibitor (Compound C9, 0.05 μM) in 2 mL of complete media. Cells were fixed in 4% formaldehyde for 15 minutes at room temperature followed by secondary fixation in ice-cold 90% methanol for 10 minutes at 4° C. After fixation, cells were washed in 2 mL of Wash Buffer (1% BSA, 0.2% Triton X-100, 1×PBS) and blocked 1 mL of Blocking Buffer (2 drops of horse serum (Vector Labs, Burlingame, Calif.) per 5 mL Wash Buffer). Cells are stained with anti-KIF18A rabbit antibody (1:3000, A301-080A 05-806, Bethyl) and anti-CETN3 mouse antibody (1:1000, H00001070-M01, Abnova) in 1 mL of Wash Buffer for 2 hours at room temperature. Cells were washed twice with 2 mL Wash Buffer. […] Wide-field images were captured using 40×objective on upright Nikon Eclipse NI-E epi-fluorescence microscope running Elements software. […]

CAL-51 tumors = assay: CAL-51 Tumor Xenograft Efficacy Study (IP); format: in vivo, mouse; conditions: 100 mg/kg IP once daily for 18 consecutive days
Protocol: Tumor volume and body weight assessment performed as described above. After the final dose on day 36, plasma pharmacokinetic analysis was performed as described above. All data analysis was performed as described above.

T1 sequence (Q8NI77 1-467): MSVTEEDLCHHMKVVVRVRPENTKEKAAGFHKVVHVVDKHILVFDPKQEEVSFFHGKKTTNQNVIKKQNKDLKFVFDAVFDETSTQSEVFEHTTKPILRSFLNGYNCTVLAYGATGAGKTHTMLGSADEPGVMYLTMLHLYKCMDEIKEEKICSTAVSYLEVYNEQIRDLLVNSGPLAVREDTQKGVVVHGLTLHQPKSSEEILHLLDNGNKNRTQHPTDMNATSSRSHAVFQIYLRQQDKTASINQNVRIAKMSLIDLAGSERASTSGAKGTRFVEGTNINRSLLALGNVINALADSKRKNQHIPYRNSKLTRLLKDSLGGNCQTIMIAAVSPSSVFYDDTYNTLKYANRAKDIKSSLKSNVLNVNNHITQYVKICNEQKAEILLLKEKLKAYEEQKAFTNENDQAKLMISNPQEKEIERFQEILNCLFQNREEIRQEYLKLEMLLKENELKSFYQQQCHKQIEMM
T1 sequence (P02550 whole entry partner): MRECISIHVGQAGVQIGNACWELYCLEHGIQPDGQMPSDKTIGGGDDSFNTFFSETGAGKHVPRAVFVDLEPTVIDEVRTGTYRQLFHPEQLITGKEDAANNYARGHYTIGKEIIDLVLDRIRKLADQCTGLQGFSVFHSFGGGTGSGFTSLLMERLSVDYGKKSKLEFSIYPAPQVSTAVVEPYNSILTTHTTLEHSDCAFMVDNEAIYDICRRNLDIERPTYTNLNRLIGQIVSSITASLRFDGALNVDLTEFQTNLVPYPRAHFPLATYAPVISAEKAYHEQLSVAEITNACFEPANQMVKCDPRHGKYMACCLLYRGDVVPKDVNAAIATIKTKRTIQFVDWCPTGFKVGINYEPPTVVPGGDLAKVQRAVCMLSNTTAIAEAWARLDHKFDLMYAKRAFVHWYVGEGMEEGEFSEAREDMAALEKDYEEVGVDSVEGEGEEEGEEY
T1 sequence (P02554 whole entry partner): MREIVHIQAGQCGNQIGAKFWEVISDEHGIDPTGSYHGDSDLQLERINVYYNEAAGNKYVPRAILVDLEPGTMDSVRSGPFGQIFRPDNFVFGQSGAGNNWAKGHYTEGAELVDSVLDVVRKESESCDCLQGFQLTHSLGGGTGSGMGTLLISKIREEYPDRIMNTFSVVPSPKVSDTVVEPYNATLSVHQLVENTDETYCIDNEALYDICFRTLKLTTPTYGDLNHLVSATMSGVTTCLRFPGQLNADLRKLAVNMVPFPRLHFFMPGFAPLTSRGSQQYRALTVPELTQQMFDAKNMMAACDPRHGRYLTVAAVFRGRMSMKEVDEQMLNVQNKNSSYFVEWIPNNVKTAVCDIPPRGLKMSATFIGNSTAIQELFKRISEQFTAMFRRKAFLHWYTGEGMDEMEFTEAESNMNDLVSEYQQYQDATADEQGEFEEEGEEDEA

With `Cc1cc(NC(=O)c2ccc(NS(=O)(=O)CCO)cc2N2CCC3(CC2)CC3)nc(N2CCC(F)(F)CC2)n1` [Compound C14, N-(2-(4,4-Difluoropiperidin-1-yl)-6-methylpyrimidin-4-yl)-4-((2-hydroxyethyl)sulfonamido)-2-(6-azaspiro[2.5]octan-6-yl)benzamide] the “p-Histone H3 mitotic marker levels in tumor” value [1] was “dose-dependent increase”, the EC50 ([2]; Homo sapiens, 96 h, mean across the seven sensitive (TP53 mutant) of twelve cell lines, SD ±0.008) was 56.3 nM and the “sensitivity in nuclear count assay” value ([2]; five Rb-proficient lines: CAL-51, ZR-75-1, MCF-7, OVCAR-5 (TP53 WT), MDA-MB-453 (TP53 NULL)) was “insensitive (if the Span did not exceed >50%, the cell line was considered insensitive)”.
`CC(C)(CO)Nc1ccc(C(=O)Nc2cccc(S(=O)(=O)C3CCCC3)c2)c(N2CCC3(CC2)CC3)n1` [Compound C11, N-(3-(cyclopentylsulfonyl)phenyl)-6-((1-hydroxy-2-methylpropan-2-yl)amino)-2-(6-azaspiro[2.5]octan-6-yl)nicotinamide] was tested, and the “KIF18A and BubR1 protein levels” value (OVCAR-3 HGSOC cells) was “increase in KIF18A and BubR1 protein levels”, the “cyclin B1, cl-PARP, Mcl-1 and cyclin E1 protein levels” value (OVCAR-3 HGSOC cells) was “increase in cyclin B1 and cl-PARP protein levels and a decrease in Mcl-1 and cyclin E1 levels” and the IC50 [3] was 41 nM.
In the case of `CC(C)(C)NS(=O)(=O)c1cccc(NC(=O)c2ccc(S(=O)(=O)NC(C)(C)C)cc2N2CCC3(CC2)CC3)c1` [Compound C9, 4-(N-(tert-butyl)sulfamoyl)-N-(3-(N-(tert-butyl)sulfamoyl)phenyl)-2-(6-azaspiro[2.5]octan-6-yl)benzamide], the “KIF18A protein localization in mitosis” value [4] is reported as “KIF18A protein mis-localization in mitosis” and the “effect on tumor growth relative to vehicle control” value (CAL-51 tumors) is reported as “no observable effect”.

From patent US20230151432A1, “KIF18A INHIBITORS FOR TREATMENT OF NEOPLASTIC DISEASES” (AMGEN INC., priority 2020, published 2023)
